Laboratory results as given in ChEMBL document CHEMBL1201862, “PubChem BioAssay data set” (2004).
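How tested: cells in 96-well plates exposed to compound for 48 hours at five concentrations. Here, GI50 denotes the concentration required for 50% inhibition of growth.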 Activity calls are given as the source filed them. Rule as the data show it: active = GI50 up to about 1.1 µM and inactive = higher.

What was measured:
Experiment in all cases: NCI-60 cell line screen, 48 h
M14 = system: M14
SW-620 = system: SW-620
KM12 = system: KM12
SNB-19 = system: SNB-19
ACHN = system: ACHN
SF-539 = system: SF-539
OVCAR-5 = system: OVCAR-5
MOLT-4 = system: MOLT-4
SNB-75 = system: SNB-75
NCI-H23 = system: NCI-H23
EKVX = system: EKVX
786-0 = system: 786-0
UACC-62 = system: UACC-62
PC-3 = system: PC-3
MCF7 = system: MCF7
RXF 393 = system: RXF 393
BT-549 = system: BT-549
UACC-257 = system: UACC-257
T47D = system: T47D
MDA-MB-435 = system: MDA-MB-435

Measured: GI50

CCNCCNC(=O)c1ccc(Br)cc1
inactive: M14 > 100 µM | SW-620 > 100 µM | KM12 > 100 µM | SNB-19 > 100 µM | ACHN > 100 µM | SF-539 > 100 µM | OVCAR-5 > 100 µM | MOLT-4 > 100 µM | SNB-75 63.4 µM | NCI-H23 > 100 µM | EKVX > 100 µM | 786-0 > 100 µM | UACC-62 > 100 µM | PC-3 > 100 µM | MCF7 > 100 µM | RXF 393 > 100 µM | BT-549 > 100 µM

N#C/C(C(=O)NCc1ccccc1)=C(/N)N1CCCC1
inactive: M14 > 100 µM | SW-620 > 100 µM | KM12 > 100 µM | SNB-19 > 100 µM | UACC-257 > 100 µM | ACHN > 100 µM | SF-539 > 100 µM | OVCAR-5 > 100 µM | MOLT-4 > 100 µM | T47D > 100 µM | NCI-H23 > 100 µM | EKVX > 100 µM | 786-0 > 100 µM | UACC-62 > 100 µM | PC-3 > 100 µM | MDA-MB-435 > 100 µM | RXF 393 > 100 µM

O=C(O)CNC(=O)c1ccc(-c2ccccc2)cc1
inactive: M14 > 100 µM | SW-620 > 100 µM | KM12 > 100 µM | SNB-19 > 100 µM | UACC-257 > 100 µM | ACHN > 100 µM | SF-539 > 100 µM | OVCAR-5 > 100 µM | MOLT-4 > 100 µM | T47D > 100 µM | NCI-H23 > 100 µM | EKVX > 100 µM | 786-0 > 100 µM | UACC-62 > 100 µM | PC-3 > 100 µM | MDA-MB-435 > 100 µM | MCF7 > 100 µM | RXF 393 > 100 µM

Cc1cc(C)c(OC(=O)Nc2cccc3ccccc23)c(-c2ccccc2)c1
inactive: M14 29.1 µM | SW-620 57.8 µM | KM12 28.4 µM | ACHN 23.7 µM | SF-539 57 µM | OVCAR-5 73.8 µM | MOLT-4 3.81 µM | T47D 48.6 µM | SNB-75 14.5 µM | NCI-H23 30.5 µM | EKVX 38.3 µM | 786-0 50.5 µM | UACC-62 30.4 µM | PC-3 15.9 µM | MDA-MB-435 30.1 µM | MCF7 52.5 µM

c1ccc(-c2nnc(CCCCCCCCc3nnc(-c4ccccc4)o3)o2)cc1
inactive: M14 > 100 µM | SW-620 > 100 µM | KM12 63.8 µM | SNB-19 > 100 µM | UACC-257 42.2 µM | ACHN > 100 µM | SF-539 > 100 µM | OVCAR-5 > 100 µM | MOLT-4 51.4 µM | SNB-75 > 100 µM | NCI-H23 > 100 µM | EKVX > 100 µM | 786-0 74 µM | PC-3 > 100 µM | MDA-MB-435 > 100 µM | MCF7 38.2 µM | BT-549 > 100 µM

COc1ccc(/C(Cl)=C(\C=O)c2cc(OC)c(OC)c(OC)c2)cc1OC
inactive: M14 56.4 µM | SW-620 > 61.2 µM | KM12 24.8 µM | SNB-19 > 52.6 µM | UACC-257 62.2 µM | ACHN 26.3 µM | SF-539 26.2 µM | OVCAR-5 67.8 µM | MOLT-4 22.4 µM | T47D 20.4 µM | SNB-75 10.8 µM | NCI-H23 12.3 µM | EKVX 24.7 µM | 786-0 34.4 µM | UACC-62 15.7 µM | PC-3 55.1 µM | MDA-MB-435 48.4 µM | RXF 393 > 100 µM

CCCCOP(=O)(OCCCC)C(NS(=O)(=O)c1ccccc1)(C(=O)OCC)C(F)(F)F (stereo not drawn)
inactive: M14 25.9 µM | KM12 31 µM | SNB-19 29.2 µM | UACC-257 31.9 µM | ACHN 27.9 µM | SF-539 19.5 µM | OVCAR-5 31 µM | MOLT-4 20.2 µM | T47D > 100 µM | SNB-75 27.6 µM | NCI-H23 33.6 µM | EKVX 30.1 µM | 786-0 33.3 µM | UACC-62 43.9 µM | PC-3 30.1 µM | MDA-MB-435 29.5 µM | MCF7 16.6 µM | RXF 393 26.7 µM

O=c1oc2cccnc2n1CCN1CCN(c2ccc(Oc3ccccc3)cc2)CC1
inactive: M14 89.7 µM | SW-620 > 100 µM | SNB-19 > 100 µM | UACC-257 21.9 µM | ACHN 35 µM | SF-539 > 100 µM | OVCAR-5 > 100 µM | MOLT-4 19.7 µM | T47D 10.4 µM | SNB-75 11.1 µM | NCI-H23 > 100 µM | EKVX > 100 µM | 786-0 20 µM | PC-3 34.4 µM | MDA-MB-435 63.2 µM | MCF7 > 100 µM | RXF 393 > 100 µM

CC1CC(C)CC(NC2=NCCO2)C1 (stereo not drawn)
inactive: M14 > 100 µM | SW-620 > 100 µM | KM12 > 100 µM | SNB-19 > 100 µM | UACC-257 > 100 µM | ACHN > 100 µM | SF-539 > 100 µM | OVCAR-5 > 100 µM | MOLT-4 > 100 µM | T47D > 100 µM | NCI-H23 > 100 µM | EKVX > 100 µM | 786-0 > 100 µM | UACC-62 > 100 µM | PC-3 > 100 µM | MDA-MB-435 > 100 µM | MCF7 > 100 µM | RXF 393 > 100 µM

CC(C)CCn1c(=O)c2c(=O)[nH][nH]c2c2ccccc21
inactive: SW-620 > 100 µM | KM12 > 100 µM | SNB-19 > 100 µM | UACC-257 > 100 µM | ACHN > 100 µM | SF-539 > 100 µM | OVCAR-5 > 100 µM | MOLT-4 > 10 µM | SNB-75 > 10 µM | NCI-H23 > 100 µM | EKVX > 100 µM | 786-0 > 100 µM | PC-3 > 100 µM | MDA-MB-435 > 100 µM | MCF7 > 100 µM | BT-549 > 100 µM

COc1ccc(CNc2nc(NCc3ccc(OC)cc3)nc(NC(C)C)n2)cc1
inactive: M14 3.61 µM | SW-620 4.22 µM | KM12 5.07 µM | SNB-19 84.1 µM | UACC-257 7.85 µM | ACHN 8.02 µM | SF-539 9.08 µM | OVCAR-5 20.2 µM | MOLT-4 42.7 µM | T47D 43.6 µM | SNB-75 7.08 µM | NCI-H23 5.21 µM | EKVX 25 µM | 786-0 7.91 µM | UACC-62 4.28 µM | PC-3 3.3 µM | MDA-MB-435 3.1 µM | MCF7 1.77 µM | RXF 393 7.08 µM

O=C(Nc1ccc(Br)cc1)c1c(-c2ccccc2)c2ccc(O)cc2oc1=O
inactive: M14 > 10 µM | SW-620 > 10 µM | KM12 > 10 µM | UACC-257 > 10 µM | ACHN > 10 µM | SF-539 > 10 µM | OVCAR-5 > 10 µM | MOLT-4 > 10 µM | T47D > 10 µM | SNB-75 > 10 µM | NCI-H23 > 10 µM | EKVX > 10 µM | 786-0 > 10 µM | PC-3 > 10 µM | MDA-MB-435 > 10 µM | MCF7 > 10 µM | RXF 393 > 10 µM
